From US20050250801A1, “Method of treating cancer with azaspirane compositions” (priority 2003, published 2005)
Like-named read-outs stand apart in the source and are kept apart here.

Columns and labels:
CaCo-2 cells [1] = assay: Inhibition of proliferation of CaCo-2 cells (WST-1, Example 8); format: cell-based; conditions: Homo sapiens, 12 hours
Method: The effect of N,N,-diethyl-8,8-dipropyl-2-azaspiro[4,5]decane-2-propanamine dimaleate (Compound 1) and other analogs (structures shown in Table 7) on proliferation of CaCo-2, a human colon carcinoma cell line, were evaluated in the following manner. Cell proliferation was measured by WST-1 dye conversion to Formazan assay using a proliferation kit from BioVision, CA. The procedure used was essentially the same as described in the manufacture's instructions. Briefly, cells were grown for 7 days until they formed semi-confluent monolayers. On day 7, cells were trypsinized and re-suspended in 96-well plates at a concentration of approximately 50,000 cells/well. […] A solution of 10 μl of WST-1 dye per well was added and plates were read after 4 hours at 440 and 600 nm using an ELISA plate reader. The absorbance at 440-600 nm is directly proportion to the number of proliferating cells. All samples were measured in duplicate and results were expressed as an average of two determinations.

OVCAR-5 = assay: NCI in vitro SRB assay, Ovarian Cancer; format: cell-based
Method: (§1) An in vitro assay which tested the ability of N,N,-diethyl-8,8-dipropyl-2-azaspiro[4,5]decane-2-propanamine dimaleate (Compound 1) to inhibit the growth of known cancer cell lines was performed by the National Cancer Institute in accordance with standard procedures. See: Lin, Z. X., Hoult, J. R., and Raman, A. Sulphorhodamine B assay for measuring proliferation of a pigmented melanocyte cell line and its application to the evaluation of crude drugs used in the treatment of vitiligo. J Ethnopharmacol. 66: 141-150, 1999. Briefly, selected tumor cell lines were cultured in media containing five different concentrations of Compound 1. After 48 hours of continuous exposure, a sulforhodamine B (SRB) assay was used to estimate cell viability or growth via optical measurements.
(§2) From the measurements, the following values were determined: 1) the concentration of Compound 1 at which a tumor cell growth inhibition of 50% (relative to control) occurs (GI50), 2) the concentration of Compound 1 at which no growth occurs (total growth inhibition, TGI), and 3) the concentration of Compound 1 at which the […] (LC 50). […] FIG. 6 illustrates, graphically, tumor cell growth as a function of Compound 1 concentration of the scanned tumor cell lines.

HUVEC = HUVEC growth inhibition assay (crystal violet); format: cell-based; conditions: Homo sapiens, 72 hours, read-out: IC50 Concentration, Growth Inhibition
Method: HUVEC (1.5×10^3) are plated in a 96-well plate in 100 μl of EBM-2 (Clonetic # CC3162). After 24 hours (day 0), a test solution of Compound 1 (100 μl) is added to each well at 2× the desired concentration (5-7 concentration levels) in EBM-2 medium. On day 0, one plate is stained with 0.5% crystal violet in 20% methanol for 10 minutes, rinsed with water, and air-dried. The remaining plates are incubated for 72 hours at 37° C. After 72 hours, plates are stained with 0.5% crystal violet in 20% methanol, rinsed with water and air-dried. The stain is eluted with 1:1 solution of ethanol: 0.1 M sodium citrate (including day 0 plate), and absorbance is measured at 540 nm with an ELISA reader (Dyriatech Laboratories). Day 0 absorbance is subtracted from the 72 hour plates and data is plotted as percentage of control proliferation (vehicle treated cells).

EKVX = assay: NCI in vitro SRB assay, Non-Small Cell Lung Cancer; format: cell-based; conditions: for GI50: Homo sapiens
Method: as §1, §2

NCI-H322M = assay: NCI in vitro SRB assay, Non-Small Cell Lung Cancer; format: cell-based; conditions: for GI50 / CC50: Homo sapiens
Method: as §1, §2

A549/ATCC = assay: NCI in vitro SRB assay, Non-Small Cell Lung Cancer; format: cell-based; conditions: for CC50 / GI50: Homo sapiens
Method: as §1, §2

Various Tumor Cell Lines = assay: NCI in vitro SRB tumor cell line assay, panel summary; format: cell-based
Method: as §1, §2

CaCo-2 cells [2] = assay: Induction of apoptosis, DNA fragmentation analysis, CaCo-2; format: cell-based, human; conditions: 12 hours treatment
Method: (§3) T84, CaCo-2 and HUVEC cells, respectively, were grown in 100 mm dishes for 7-9 days, culture media for HUVEC was EGM-2 (Clonetics, BioWhitaker Co.), until they reached semi-confluency. Cell monolayers were then treated for 12 hours (CaCo-2 and T84) and 16 hours (HUVEC), respectively, at the indicated concentrations of N,N,-diethyl-8,8-dipropyl-2-azaspiro[4,5]decane-2-propanamine dimaleate (Compound 1) in culture media. Cells were collected by trypsinization and the apoptotic DNA was isolated from these cells following the instructions of the DNA fragmentation analysis kit (Boehringer Mannheim Corp., Indianapolis, Ind.). The apoptotic DNA was evaluated using 1.5% agarose gel electrophoresis followed by staining with ethidium bromide. M denotes the lane containing molecular weight markers of DNA.

T84 cells = assay: Induction of apoptosis, DNA fragmentation analysis, T84; format: cell-based, human; conditions: 12 hours treatment
Method: as §3

[3] = read-out: Log10 GI50 (converted)
[4] = A549/ATCC, Log10 conc -4.0 Moles/L
[5] = A549/ATCC, Log10 conc -5.0 Moles/L
[6] = A549/ATCC, Log10 conc -6.0 Moles/L
[7] = A549/ATCC, Log10 conc -7.0 Moles/L
[8] = A549/ATCC, Log10 conc -8.0 Moles/L

CCCC1(CCC)CCC2(CCN(CCCN(CC)CC)C2)CC1.O=C(O)/C=C\C(=O)O.O=C(O)/C=C\C(=O)O [Compound 1, N,N,-diethyl-8,8-dipropyl-2-azaspiro[4,5]decane-2-propanamine dimaleate]
inhibition at 5 µM (CaCo-2 cells [1]; 5 μM, read-out: % Inhibition of Proliferation at 5 μM Compound): 85%
IC50 (CaCo-2 cells [1]): ~2.5 µM
CC50 (OVCAR-5; Homo sapiens, OVCAR-5, read-out: Log10 LC50 (converted)): 7.08 µM
GI50 (OVCAR-5; Homo sapiens, OVCAR-5, read-out: Log10 GI50 (converted)): 2.4 µM
Log10 TGI (OVCAR-5; OVCAR-5): −5.39
IC50 (HUVEC): 2.05 µM
Log10 TGI (EKVX): −5.39
TGI (EKVX): 4.09 µM
GI50 (EKVX; read-out: GI50): 2.11 µM
GI50 (EKVX; [3]): 2.09 µM
Mean Optical Densities (EKVX; Log10 conc -4.0 Moles/L): 0.073
Percent Growth (EKVX; Log10 conc -4.0 Moles/L): −88%
Mean Optical Densities (EKVX; Log10 conc -5.0 Moles/L): 0.202
Percent Growth (EKVX; Log10 conc -5.0 Moles/L): −67%
Mean Optical Densities (EKVX; Log10 conc -6.0 Moles/L): 1.321
Percent Growth (EKVX; Log10 conc -6.0 Moles/L): 106%
Mean Optical Densities (EKVX; Log10 conc -7.0 Moles/L): 1.336
Percent Growth (EKVX; Log10 conc -7.0 Moles/L): 108%
Mean Optical Densities (EKVX; Log10 conc -8.0 Moles/L): 1.280
Percent Growth (EKVX; Log10 conc -8.0 Moles/L): 100%
Log10 TGI (NCI-H322M): −5.64
TGI (NCI-H322M): 2.29 µM
GI50 (NCI-H322M; read-out: GI50): 0.89 µM
CC50 (NCI-H322M; read-out: LC50): 5.41 µM
GI50 (NCI-H322M; [3]): 0.891 µM
CC50 (NCI-H322M; read-out: Log10 LC50 (converted)): 5.37 µM
Mean Optical Densities (NCI-H322M; Log10 conc -4.0 Moles/L): 0.115
Percent Growth (NCI-H322M; Log10 conc -4.0 Moles/L): −84%
Mean Optical Densities (NCI-H322M; Log10 conc -5.0 Moles/L): 0.100
Percent Growth (NCI-H322M; Log10 conc -5.0 Moles/L): −86%
Mean Optical Densities (NCI-H322M; Log10 conc -6.0 Moles/L): 0.855
Percent Growth (NCI-H322M; Log10 conc -6.0 Moles/L): 48%
Mean Optical Densities (NCI-H322M; Log10 conc -7.0 Moles/L): 0.979
Percent Growth (NCI-H322M; Log10 conc -7.0 Moles/L): 86%
Mean Optical Densities (NCI-H322M; Log10 conc -8.0 Moles/L): 0.991
Percent Growth (NCI-H322M; Log10 conc -8.0 Moles/L): 89%
Log10 TGI (A549/ATCC; A549/ATCC): −5.48
TGI (A549/ATCC; A549/ATCC): 3.33 µM
Mean Optical Densities (A549/ATCC; [4]): 0.056
Percent Growth (A549/ATCC; [4]): −78%
Mean Optical Densities (A549/ATCC; [5]): 0.070
Percent Growth (A549/ATCC; [5]): −73%
Mean Optical Densities (A549/ATCC; [6]): 1.126
Percent Growth (A549/ATCC; [6]): 80%
Mean Optical Densities (A549/ATCC; [7]): 1.307
Percent Growth (A549/ATCC; [7]): 96%
Mean Optical Densities (A549/ATCC; [8]): 1.277
Percent Growth (A549/ATCC; [8]): 94%
CC50 (A549/ATCC; A549, read-out: LC50): 7.08 µM
CC50 (A549/ATCC; A549, read-out: Log10 LC50 (converted)): 7.08 µM
GI50 (A549/ATCC; A549/ATCC, read-out: GI50): 1.57 µM
GI50 (A549/ATCC; A549/ATCC, read-out: Log10 GI50 (converted)): 1.58 µM
Log10 GI50, MG_MID (Various Tumor Cell Lines; all cell lines of Table 2): −5.93
Log10 TGI, Delta (Various Tumor Cell Lines; all cell lines of Table 2): 1.18
Log10 TGI, MG_MID (Various Tumor Cell Lines; all cell lines of Table 2): −5.45
Log10 TGI, Range (Various Tumor Cell Lines; all cell lines of Table 2): 2.62
CC50 (Various Tumor Cell Lines; read-out: Log10 LC50, MG_MID (converted)): 8.71 µM
DNA ladder formation (apoptosis) (CaCo-2 cells [2]): formation of DNA laddering in a dose-dependent manner
DNA ladder formation (apoptosis) (T84 cells): formation of DNA laddering in a dose-dependent manner
